Source: ChEMBL document CHEMBL1201862, “PubChem BioAssay data set” (2004)
The source made the active and inactive calls.

What was measured:
[1] = cells
[2] = Shn3 3'UTR reporter inhibitors, dose response, cell-based, Clone20 osteoblasts, firefly luciferase, cherry-picked (AID 624132); type: functional;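 note: firefly luciferase luminescence from reporter carrying the Shn3 3'UTR in osteoblasts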
[3] = reduction of Shn3 3'UTR firefly luciferase signal, dose response, Schnurri-3 inhibitor project, cell-based, Clone20 osteoblasts, cherry-pick, set 2 (AID 720490); type: functional;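 note: actives lower the luminescence signal as inhibitors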
[4] = control 3'UTR Renilla luciferase suppression, dose response, counter-screen for Shn3 inhibitor project, cell-based, Clone20-Shn3RL, cherry-picked (AID 624133); type: functional
[5] = biological target: Kallikrein-7 (Homo sapiens, UniProt P49862); test: Fluorescence Intensity-based biochemical primary high throughput dose response assay to identify activators of kallikrein-7 (K7) zymogen.
[6] = EDANS-DABCYL fluorescence interference, concentration series, dose response, artefact control for kallikrein-7 zymogen activator project, biochemical, fluorescence intensity, triplicate (AID 720493)
[7] = HepG2 cell cytotoxicity, dose response, cytotoxicity control, ATP luminescence, cherry-pick, activator set 2 (AID 1053143); type: functional, cell-based
[8] = LGR2 antagonists, dose response, cell-based, HEK293, CRE-luciferase reporter, cherry pick, set 2 (AID 743343); type: functional;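 note: transfected cells were stimulated with diluted bursicon conditioned medium after compound addition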
[9] = HepG2 cell cytotoxicity, dose response, cytotoxicity control, plate reader, cherry-pick, antagonist series (AID 743416); type: functional, cell-based
[10] = A549 cell cytotoxicity, dose response, cytotoxicity control, plate reader, cherry-pick, antagonist series (AID 743412); type: functional, cell-based
[11] = biological target: T1, DNA repair protein RAD52 homolog (Homo sapiens, UniProt P43351); type: functional, biochemical
T1 sequence (P43351 whole entry): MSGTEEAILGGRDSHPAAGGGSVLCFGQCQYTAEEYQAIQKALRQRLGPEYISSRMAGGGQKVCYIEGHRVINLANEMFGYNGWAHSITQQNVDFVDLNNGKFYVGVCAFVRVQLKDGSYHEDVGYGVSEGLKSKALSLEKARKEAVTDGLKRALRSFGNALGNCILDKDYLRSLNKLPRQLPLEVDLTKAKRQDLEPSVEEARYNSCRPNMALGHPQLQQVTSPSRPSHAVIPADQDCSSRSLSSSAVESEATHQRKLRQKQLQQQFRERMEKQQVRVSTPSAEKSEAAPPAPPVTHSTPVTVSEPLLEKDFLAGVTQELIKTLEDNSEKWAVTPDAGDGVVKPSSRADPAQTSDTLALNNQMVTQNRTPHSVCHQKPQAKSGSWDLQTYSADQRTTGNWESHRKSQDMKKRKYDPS

[12] = biological target: Nonstructural protein 1 (Influenza A virus, UniProt Q194T2); type: functional, Influenza A virus (A/California/07/2009(H1N1))
[13] = biological target: Caspase-9 (Homo sapiens, UniProt P55211); test: caspase-9 enzyme inhibition, dose response, selectivity assay for caspase-6 inhibitor project, biochemical, fluorescence, plate reader, cherry-picked samples (AID 743293)
[14] = test system: A549; test: A549 cell toxicity, dose response, cytotoxicity control, plate reader, cherry-pick samples (AID 687028); type: functional, cell-based; settings: Homo sapiens
[15] = MC4R antagonists, dose response, counter-screen for LGR2 antagonist project, cell-based, plate reader, cherry pick (AID 743444); type: functional;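 note: transfected HEK 293 cells stimulated with alpha-MSH peptide; potency of inhibitors of the alpha-MSH evoked signal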
[16] = biological target: T2, Caspase-6 (Homo sapiens, UniProt P55212); test: human caspase-6 inhibitors, dose response, biochemical, VEID-R110 fluorescence, cherry-pick (AID 720632)
T2 sequence (P55212 whole entry): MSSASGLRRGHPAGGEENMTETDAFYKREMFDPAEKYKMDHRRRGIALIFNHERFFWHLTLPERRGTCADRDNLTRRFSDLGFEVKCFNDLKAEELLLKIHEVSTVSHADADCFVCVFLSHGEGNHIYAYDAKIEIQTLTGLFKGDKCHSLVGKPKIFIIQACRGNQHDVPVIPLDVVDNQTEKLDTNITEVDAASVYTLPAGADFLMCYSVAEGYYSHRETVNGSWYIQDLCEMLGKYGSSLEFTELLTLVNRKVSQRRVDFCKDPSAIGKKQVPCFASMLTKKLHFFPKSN

[17] = biological target: Caspase-7 (Homo sapiens, UniProt P55210); test: human caspase-7 inhibitors, dose response, selectivity assay for caspase-6 inhibitor project, biochemical, DEVD-R110 fluorescence, cherry-pick (AID 743295)
[18] = biological target: T3, Apoptotic protease-activating factor 1 (Homo sapiens, UniProt O14727); type: functional
T3 sequence (O14727 whole entry): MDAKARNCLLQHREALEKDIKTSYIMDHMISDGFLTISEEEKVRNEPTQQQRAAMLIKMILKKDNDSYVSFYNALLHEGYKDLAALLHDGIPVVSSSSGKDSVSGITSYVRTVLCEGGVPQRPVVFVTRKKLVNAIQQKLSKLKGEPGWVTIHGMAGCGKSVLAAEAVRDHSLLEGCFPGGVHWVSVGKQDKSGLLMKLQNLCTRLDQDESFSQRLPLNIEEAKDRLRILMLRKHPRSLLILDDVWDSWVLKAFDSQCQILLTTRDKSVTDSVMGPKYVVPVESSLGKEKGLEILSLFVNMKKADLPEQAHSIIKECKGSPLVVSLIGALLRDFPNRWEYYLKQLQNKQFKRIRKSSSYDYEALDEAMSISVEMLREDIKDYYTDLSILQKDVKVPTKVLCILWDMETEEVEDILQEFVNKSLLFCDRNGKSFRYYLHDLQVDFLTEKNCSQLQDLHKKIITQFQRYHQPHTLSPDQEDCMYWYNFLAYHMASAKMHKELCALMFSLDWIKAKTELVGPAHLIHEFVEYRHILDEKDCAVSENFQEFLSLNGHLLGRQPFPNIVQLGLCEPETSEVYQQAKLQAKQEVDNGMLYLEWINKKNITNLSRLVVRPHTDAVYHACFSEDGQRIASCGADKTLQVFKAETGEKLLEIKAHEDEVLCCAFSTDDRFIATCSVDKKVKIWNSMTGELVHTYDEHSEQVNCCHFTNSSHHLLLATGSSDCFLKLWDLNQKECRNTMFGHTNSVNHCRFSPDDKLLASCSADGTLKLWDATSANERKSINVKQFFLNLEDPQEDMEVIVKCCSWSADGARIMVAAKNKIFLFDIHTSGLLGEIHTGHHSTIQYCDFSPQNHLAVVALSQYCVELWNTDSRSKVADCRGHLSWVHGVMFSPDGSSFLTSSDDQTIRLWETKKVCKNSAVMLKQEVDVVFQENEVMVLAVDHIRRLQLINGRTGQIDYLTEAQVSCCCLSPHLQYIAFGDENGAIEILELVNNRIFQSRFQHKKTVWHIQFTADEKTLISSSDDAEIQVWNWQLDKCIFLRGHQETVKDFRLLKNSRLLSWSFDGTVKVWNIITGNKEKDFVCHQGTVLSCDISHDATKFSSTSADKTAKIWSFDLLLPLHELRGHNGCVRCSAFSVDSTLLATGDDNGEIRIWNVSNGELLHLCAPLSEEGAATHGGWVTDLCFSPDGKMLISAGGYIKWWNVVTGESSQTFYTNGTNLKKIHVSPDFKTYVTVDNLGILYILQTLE

[19] = biological target: Caspase-8 (Homo sapiens, UniProt Q14790); test: caspase-8 inhibition counter-screen, dose response, selectivity assay for caspase-6 inhibitor project, biochemical, Z-IETD-R110 fluorescence, cherry-picked samples (AID 743294)
[20] = ADAM10 protease inhibitors, dose response, selectivity assay for ADAM17 exosite inhibitor project, biochemical, FRET peptide substrate, recombinant human ADAM10 (AID 743259);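 note: ADAM10 enzyme cleaving a FRET peptide substrate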
[21] = biological target: Disintegrin and metalloproteinase domain-containing protein 17 (Homo sapiens, UniProt P78536); test: exosite inhibitors of ADAM17, dose response, biochemical (AID 743260)
Sequence of Disintegrin and metalloproteinase domain-containing protein 17 (P78536 whole entry, the tested form may be a part): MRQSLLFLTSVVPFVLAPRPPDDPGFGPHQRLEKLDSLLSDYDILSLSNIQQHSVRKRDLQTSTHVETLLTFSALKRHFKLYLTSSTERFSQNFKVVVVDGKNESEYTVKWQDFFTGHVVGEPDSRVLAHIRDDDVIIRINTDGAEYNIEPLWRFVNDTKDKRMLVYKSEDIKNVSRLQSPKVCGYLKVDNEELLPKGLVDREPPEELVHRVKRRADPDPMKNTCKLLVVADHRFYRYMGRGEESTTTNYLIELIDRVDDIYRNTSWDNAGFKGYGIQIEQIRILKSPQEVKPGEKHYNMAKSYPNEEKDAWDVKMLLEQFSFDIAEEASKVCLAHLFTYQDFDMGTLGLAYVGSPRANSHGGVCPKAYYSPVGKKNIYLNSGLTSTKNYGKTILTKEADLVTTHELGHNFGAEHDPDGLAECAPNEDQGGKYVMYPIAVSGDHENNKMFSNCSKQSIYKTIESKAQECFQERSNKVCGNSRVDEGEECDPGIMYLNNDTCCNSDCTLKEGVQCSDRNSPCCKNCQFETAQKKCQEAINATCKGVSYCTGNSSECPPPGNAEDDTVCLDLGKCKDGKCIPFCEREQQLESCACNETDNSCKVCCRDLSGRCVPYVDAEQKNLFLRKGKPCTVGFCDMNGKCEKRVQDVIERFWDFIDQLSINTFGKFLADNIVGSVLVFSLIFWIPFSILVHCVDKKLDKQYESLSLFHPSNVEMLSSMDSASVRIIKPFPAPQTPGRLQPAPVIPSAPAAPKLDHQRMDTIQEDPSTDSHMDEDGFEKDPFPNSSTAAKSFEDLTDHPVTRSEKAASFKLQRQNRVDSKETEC

Sequence of Caspase-8 (Q14790 217-374 limits assumed): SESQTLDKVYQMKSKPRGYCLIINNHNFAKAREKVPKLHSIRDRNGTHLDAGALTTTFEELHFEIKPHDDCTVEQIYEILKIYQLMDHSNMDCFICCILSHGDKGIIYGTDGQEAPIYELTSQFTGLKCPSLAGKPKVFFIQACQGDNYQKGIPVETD
Sequence of Caspase-8 (Q14790 385-479 limits assumed): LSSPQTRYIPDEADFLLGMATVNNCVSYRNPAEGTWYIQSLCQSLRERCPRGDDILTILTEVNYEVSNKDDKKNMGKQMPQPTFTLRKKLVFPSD
Sequence of Nonstructural protein 1 (Q194T2 whole entry): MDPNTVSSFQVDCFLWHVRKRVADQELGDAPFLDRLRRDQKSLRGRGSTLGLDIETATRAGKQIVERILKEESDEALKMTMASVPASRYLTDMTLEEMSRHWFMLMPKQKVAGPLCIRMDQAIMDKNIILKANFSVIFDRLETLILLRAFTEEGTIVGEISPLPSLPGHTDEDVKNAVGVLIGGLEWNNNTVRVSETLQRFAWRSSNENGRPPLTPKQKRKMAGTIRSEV
Sequence of Caspase-9 (P55211 1-315 limits assumed): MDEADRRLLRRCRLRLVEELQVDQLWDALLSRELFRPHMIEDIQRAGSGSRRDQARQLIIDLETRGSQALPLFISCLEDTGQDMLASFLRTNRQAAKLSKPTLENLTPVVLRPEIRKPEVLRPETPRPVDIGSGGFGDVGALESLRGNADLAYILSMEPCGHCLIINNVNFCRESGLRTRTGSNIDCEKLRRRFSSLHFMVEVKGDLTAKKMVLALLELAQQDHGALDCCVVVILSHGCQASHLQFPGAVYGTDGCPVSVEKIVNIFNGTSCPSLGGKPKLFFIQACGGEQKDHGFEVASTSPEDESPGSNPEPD
Sequence of Caspase-9 (P55211 331-416 limits assumed): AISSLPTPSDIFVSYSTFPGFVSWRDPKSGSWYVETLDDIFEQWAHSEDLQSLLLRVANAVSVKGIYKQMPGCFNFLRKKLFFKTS
Sequence of Kallikrein-7 (P49862 whole entry): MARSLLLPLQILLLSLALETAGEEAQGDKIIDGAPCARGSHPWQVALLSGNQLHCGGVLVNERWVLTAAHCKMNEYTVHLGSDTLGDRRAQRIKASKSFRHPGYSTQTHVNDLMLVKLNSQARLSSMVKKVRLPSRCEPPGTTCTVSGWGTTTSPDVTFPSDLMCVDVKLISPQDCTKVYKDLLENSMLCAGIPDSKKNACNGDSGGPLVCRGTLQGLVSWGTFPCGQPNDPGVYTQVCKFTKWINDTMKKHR
Sequence of Caspase-7 (P55210 24-198 limits assumed): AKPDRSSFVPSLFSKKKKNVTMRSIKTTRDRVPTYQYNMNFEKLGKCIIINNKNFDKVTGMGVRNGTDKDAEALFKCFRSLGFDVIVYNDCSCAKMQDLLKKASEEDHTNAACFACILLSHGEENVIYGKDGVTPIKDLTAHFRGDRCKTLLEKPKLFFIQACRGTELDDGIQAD
Sequence of Caspase-7 (P55210 207-303 limits assumed): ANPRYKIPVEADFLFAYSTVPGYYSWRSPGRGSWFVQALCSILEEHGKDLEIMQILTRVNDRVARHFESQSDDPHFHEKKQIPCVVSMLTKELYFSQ

Which AC50 [1] does the source give for `CCCCN1C=C(C(=O)OC)C(c2ccccc2Cl)C(C(=O)OC)=C1` here?
Its AC50 is 2.12 µM (active).

With `Cc1onc(-c2ccccc2Cl)c1C(=O)N(C)C1CCCCC1` as the molecule, how does the AC50 [2] read?
Its AC50 is 2.74 µM (active).

And the AC50 [3]?
Its AC50 is 3.59 µM (active).

And the AC50 [4]?
Its AC50 is 11.2 µM (active).

Which results are given for `CCC1CCCCN1Cc1c(O)ccc2c(=O)c(-c3ccccc3)coc12` (stereo unspecified)?
EC50 [5]: > 69.5 µM (inactive); EC50 [6]: > 7.72 µM (active)

With `O=C(/C=C/c1ccco1)Nc1cccnc1Cl` as the molecule, how does the AC50 [7] read?
Its AC50 is > 52 µM (inactive).

What does the source list for `CN(C)CCCNc1cc(O)c2ncccc2c1`?
AC50 [8]: 32 µM (active); AC50 [9]: 7.93 µM (active); AC50 [10]: 8.67 µM (active); AC50 [11]: 1.15 µM (active); IC50 [12]: 4.57 µM (active); AC50 [13]: > 70 µM (inactive); AC50 [14]: 20.2 µM (active); AC50 [15]: 25.3 µM (active); AC50 [16]: 3.64 µM (active); AC50 [17]: 7.56 µM (active); IC50 [18]: 15.8 µM (active); AC50 [19]: 42 µM (active)

For `COc1ccccc1CNS(=O)(=O)c1cc(-c2cc(C)no2)ccc1C(C)C`, which IC50 [20] is on record?
Its IC50 is > 69.5 µM (inactive).

What about the IC50 [21] of the same molecule?
The IC50 was > 69.5 µM (inactive).
